Data taken from ChEMBL document CHEMBL1137509, “Taxodistines A and B, abietane-type diterpenes from Taxodium distichum” (Bioorg Med Chem Lett, 2007).
Converted amounts (≈) assume the structure as drawn. The source made the active and inactive calls. The calls are words filed in the database; no cut-off is given here.

Tests used:
Tubulin (Homo sapiens) [1] = molecular target: T1, Tubulin (Homo sapiens) (UniProt P68371+Q9H4B7+P0DPH7+P68366+Q13509+Q71U36+P04350+Q3ZCM7+P07437+P68363+Q9BQE3+Q6PEY2+Q13885+Q9BVA1+Q9BUF5); assay: Inhibition of tubulin polymerization at 100 uM after 30 mins; format: protein-complex assay
P388 = assay: Cytotoxicity against mouse P388 cells; format: functional, cell-based
Tubulin (Homo sapiens) [2] = molecular target: T1, Tubulin (Homo sapiens); assay: Inhibition of tubulin polymerization at 200 uM after 30 mins; format: protein-complex assay

| SMILES | inhibition (Tubulin (Homo sapiens) [1]) [%] | IC50 (P388) [µg/mL] | Activity (Tubulin (Homo sapiens) [2]) |
| --- | --- | --- | --- |
| CC(C)C1=CC2=CC(=O)[C@H]3C(C)(C)CCC[C@]3(C)C2=C(O)C1=O | 45 |  |  |
| CO[C@@H]1c2cc(C(C)C)c(O)c(O)c2[C@@]2(C)CCCC(C)(C)[C@@H]2[C@H]1O [TAXODISTINE A] |  | 0.43 (≈ 1.23 µM) | inactive |
| CO[C@@H]1c2cc(C(C)C)c(O)cc2[C@@]2(C)CCCC(C)(C)[C@@H]2[C@H]1O [TAXODISTINE B] | 90 | 6.5 (≈ 19.5 µM) |  |
